ChEMBL document CHEMBL3758102, “Serrulatane Diterpenoid from Eremophila neglecta Exhibits Bacterial Biofilm Dispersion and Inhibits Release of Pro-inflammatory Cytokines from Activated Macrophages” (J Nat Prod, 2015)
In brackets after ≈: the same amount, converted by molar mass. Activity calls are given as the source filed them. The rule behind the calls is not given here.

How the values were obtained:
[1] = Induction of apoptosis in C57Bl/6 mouse BMDM cells assessed as viable cells at 160 uM by annexin V-FITC/DAPI staining-based flow cytometric analysis (reference value: 46.7%); type: functional; conditions: C57BI/6, BMDM, read-out: Activity
[2] = system: Staphylococcus epidermidis; assay: Antibiofilm activity against Staphylococcus epidermidis ATCC 35984 assessed as inhibition of 24 hrs pre-established biofilm formation at 0.064 umol/well after 20 hrs by visible spectrometric analysis; type: functional, organism-based
[3] = Induction of apoptosis in C57Bl/6 mouse BMDM cells assessed as dead cells at 80 uM by annexin V-FITC/DAPI staining-based flow cytometric analysis (reference value: 24.4%); type: functional, C57BI/6
[4] = Cytotoxicity against C57Bl/6 mouse BMDM cells assessed as cell viability at <=80 uM after 72 hrs by MTS assay; type: cell-based, C57BI/6
[5] = system: Staphylococcus epidermidis; assay: Antibiofilm activity against Staphylococcus epidermidis ATCC 35984 assessed as reduction in 12 hrs pre-established biofilm viable cell count after 20 hrs (reference value: 1.2 x 10^10 CFU/ml); type: functional
BMDM [6] = assay: Inhibition of TNFalpha production in C57Bl/6 mouse BMDM cells at 40 to 80 uM pretreated prior to LPS-stimulation measured on day 7 by ELISA; type: functional, cell-based; conditions: C57BI/6
[7] = system: Staphylococcus epidermidis; assay: Antibiofilm activity against Staphylococcus epidermidis ATCC 35984 assessed as 12 hrs pre-established biofilm viable cell count at 0.04 umol/mesh after 20 hrs by […] using compound impregnated in polypropylene mesh (reference value: 8.6 x 10^9 CFU/ml); type: functional
[8] = Induction of apoptosis in C57Bl/6 mouse BMDM cells assessed as late apoptotic cells at 40 uM by annexin V-FITC/DAPI staining-based flow cytometric analysis (reference value: 28.4%); type: functional, C57BI/6
[9] = Induction of apoptosis in C57Bl/6 mouse BMDM cells assessed as viable cells at 20 uM by annexin V-FITC/DAPI staining-based flow cytometric analysis (reference value: 46.7%); type: functional; conditions: C57BI/6, BMDM, read-out: Activity
[10] = system: Staphylococcus epidermidis; assay: Antibiofilm activity against Staphylococcus epidermidis ATCC 35984 assessed as 12 hrs pre-established biofilm viable cell count at 0.01 umol/mesh after 20 hrs by […] using compound impregnated in polypropylene mesh (reference value: 8.6 x 10^9 CFU/ml); type: functional
[11] = system: Staphylococcus epidermidis; assay: Antibiofilm activity against Staphylococcus epidermidis ATCC 35984 assessed as 12 hrs pre-established supernatant viable cell count at 0.01 umol/mesh after 20 hrs by […] using compound impregnated in polypropylene mesh (Rvb =7.7 x 10^8 CFU/ml); type: functional
[12] = system: Staphylococcus epidermidis; assay: Antibiofilm activity against Staphylococcus epidermidis ATCC 35984 assessed as inhibition of 24 hrs pre-established biofilm formation at 0.064 umol/well after 20 hrs by safranin staining-based method; type: functional, organism-based
BMDM [13] = assay: Increase in IL-1beta production in C57Bl/6 mouse BMDM cells at 20 uM pretreated for 1 hr prior to ATP-stimulation by ELISA; type: functional, cell-based; conditions: C57BI/6
[14] = system: Staphylococcus epidermidis; assay: Antibiofilm activity against Staphylococcus epidermidis ATCC 35984 assessed as inhibition of 3 to 6 hrs pre-established biofilm formation at 0.064 umol/well after 20 hrs by safranin staining-based method; type: functional, organism-based
[15] = system: Staphylococcus epidermidis; assay: Antibiofilm activity against Staphylococcus epidermidis ATCC 35984 assessed as induction of loosely attached live and dead bacteria in 12 hrs pre-established biofilm at 0.064 umol/well after 20 hrs by fluorescence staining-based confocal microscopic analysis; type: functional, organism-based
[16] = system: Staphylococcus epidermidis; assay: Antibiofilm activity against Staphylococcus epidermidis ATCC 35984 assessed as 12 hrs pre-established supernatant viable cell count at 0.08 umol/mesh after 20 hrs by […] using compound impregnated in polypropylene mesh (Rvb =7.7 x 10^8 CFU/ml); type: functional
[17] = Induction of apoptosis in C57Bl/6 mouse BMDM cells assessed as late apoptotic cells at 2.5 uM by annexin V-FITC/DAPI staining-based flow cytometric analysis (reference value: 28.4%); type: functional, C57BI/6
[18] = system: Staphylococcus epidermidis; assay: Antibiofilm activity against Staphylococcus epidermidis ATCC 35984 assessed as inhibition of 12 hrs pre-established biofilm formation at 0.16 umol after 20 hrs by safranin staining-based UV-visible spectroscopic analysis using compound impregnated in polypropylene mesh; type: functional, organism-based
[19] = system: Staphylococcus epidermidis; assay: Antibiofilm activity against Staphylococcus epidermidis ATCC 35984 assessed as 12 hrs pre-established supernatant viable cell count at 0.16 umol/mesh after 20 hrs by […] using compound impregnated in polypropylene mesh (Rvb =7.7 x 10^8 CFU/ml); type: functional
[20] = Induction of apoptosis in C57Bl/6 mouse BMDM cells assessed as early apoptotic cells at 20 uM by annexin V-FITC/DAPI staining-based flow cytometric analysis (reference value: 0.49%); type: functional, C57BI/6
BMDM [21] = assay: Increase in IL-1beta production in C57Bl/6 mouse BMDM cells at 2.5 to 80 uM pretreated for 1 hr prior to ATP-stimulation by ELISA; type: functional, cell-based; conditions: C57BI/6
BMDM [22] = assay: Decrease in IL-1beta production in C57Bl/6 mouse BMDM cells at 2.5 to 80 uM pretreated for 1 hr prior to ATP-stimulation by ELISA; type: functional, cell-based; conditions: C57BI/6
[23] = system: Staphylococcus epidermidis; assay: Antibiofilm activity against Staphylococcus epidermidis ATCC 35984 assessed as 3 hrs pre-established biofilm viable cell count after 20 hrs (reference value: 1 x 10^10 CFU/ml); type: functional
[24] = Induction of apoptosis in C57Bl/6 mouse BMDM cells assessed as viable cells at 80 uM by annexin V-FITC/DAPI staining-based flow cytometric analysis (reference value: 46.7%); type: functional; conditions: C57BI/6, BMDM, read-out: Activity
[25] = Induction of apoptosis in C57Bl/6 mouse BMDM cells assessed as dead cells at 2.5 uM by annexin V-FITC/DAPI staining-based flow cytometric analysis (reference value: 24.4%); type: functional, C57BI/6
Pseudomonas aeruginosa = assay: Antibacterial activity against Pseudomonas aeruginosa ATCC 27853 at 658 uM incubated overnight by broth microdilution method; type: functional, organism-based
[26] = system: Staphylococcus epidermidis; assay: Antibiofilm activity against Staphylococcus epidermidis ATCC 35984 assessed as inhibition of 12 hrs pre-established biofilm formation at 0.064 umol/well after 20 hrs by safranin staining-based method; type: functional, organism-based
[27] = Induction of apoptosis in C57Bl/6 mouse BMDM cells assessed as early apoptotic cells at 160 uM by annexin V-FITC/DAPI staining-based flow cytometric analysis (reference value: 0.49%); type: functional, C57BI/6
Staphylococcus aureus [28] = assay: Antibacterial activity against Staphylococcus aureus ATCC 29213 incubated overnight by broth microdilution method; type: functional
Staphylococcus aureus [29] = assay: Antibacterial activity against Staphylococcus aureus ATCC 35556 incubated overnight by broth microdilution method; type: functional
BMDM [30] = assay: Inhibition of IL-6 production in C57Bl/6 mouse BMDM cells at 10 uM pretreated prior to LPS-stimulation measured on day 7 by ELISA; type: functional, cell-based; conditions: C57BI/6
BMDM [31] = assay: Inhibition of IL10 production in C57Bl/6 mouse BMDM cells by ELISA; type: functional, cell-based; conditions: C57BI/6

## CC(C)=CCC[C@H](C)[C@@H]1CC[C@@H](C)c2c(O)cc(C(=O)O)cc21
[1]
  viability at 160 µM: 53%
[2]
  inhibition: Active
[3]
  Activity: 23.9%
[4]
  Activity: Non-toxic
[5]
  Activity: 7 log10CFU/ml
BMDM [6]
  inhibition: Active
[7]
  Activity: 6.7 ×10⁸ CFU/ml
[8]
  Activity: 27.7%
[9]
  viability at 20 µM: 62.2%
[10]
  Activity: 1.6 ×10⁹ CFU/ml
[11]
  Activity: 3.4 ×10⁸ CFU/ml
[12]
  Activity: inactive
BMDM [13]
  Activity: inactive
[14]
  inhibition: Active
[15]
  Activity: Active
[16]
  Activity: 4.4 ×10⁴ CFU/ml
[17]
  Activity: 32.7%
[18]
  inhibition: Active
[19]
  Activity: 9 ×10³ CFU/ml
[20]
  Activity: 4.05%
BMDM [21]
  Activity: inactive
BMDM [22]
  Activity: inactive
[23]
  Activity: 0 CFU/ml
[24]
  viability at 80 µM: 31%
[25]
  Activity: 13.3%
Pseudomonas aeruginosa
  Activity: inactive
[26]
  inhibition: Active
[27]
  Activity: 42.5%
Staphylococcus aureus [28]
  MBC: 82 µM (≈ 25.9 µg/mL)
  MIC: 82 µM (≈ 25.9 µg/mL)
Staphylococcus aureus [29]
  MBC: 41 µM (≈ 13 µg/mL)
  MIC: 41 µM (≈ 13 µg/mL)
BMDM [30]
  inhibition: inactive
BMDM [31]
  inhibition: inactive
